# Experimental data: PMC9112895, “Selective Inhibition of Plasmodium falciparum ATPase 6 by Artemisinins and Identification of New Classes of Inhibitors after Expression in Yeast” (Antimicrobial Agents and Chemotherapy, 2022)
# Key:
# K667Δpdr5::pUGpd = assay: Yeast whole-cell growth inhibition, vector-only control K667Δpdr5::pUGpd; assay type: cell-based, Saccharomyces cerevisiae; settings: compound screen
# Description: The screening assay used here was developed from the protocol used by Pulcini et al. ([13]). A single colony of the yeast strain to be screened was picked and grown in 5 mL of selective medium until stationary phase was reached. The culture was diluted 100-fold in ampicillin-supplemented yeast extract-peptone-dextrose (YPD) medium to an OD at 620 nm (OD620) equivalent to that of lag phase. YPD medium was supplemented with an appropriate concentration of calcium, depending on the transformed strain. The optimal calcium concentration for the PfATP6-expressing strain was 22 mM, and that for the SERCA1a-expressing strain was […]. The optimal calcium concentration was periodically monitored and, if necessary, adjusted using a calcium concentration range of 10 to 30 mM. A final volume of 200 μL of the yeast culture was added to each well of a 96-well plate, with 5 technical replicates included per inhibitor. All inhibitors were dissolved in dimethyl sulfoxide (DMSO) unless otherwise stated. Stock solutions of each inhibitor were diluted 100-fold in each well to give the desired final concentration. […] The 96-well plates were incubated at 30°C for 42 h. The yeast growth was estimated from the absorbance at 620 nm in a Tecan plate reader. […] The data collected were analyzed using GraphPad Prism v9.0 (GraphPad software, San Diego, CA, U.S.A).
# SERCA1a [1] = target: T1, SERCA1a (Oryctolagus cuniculus, UniProt P04191); assay: Yeast whole-cell growth inhibition assay, K667Δpdr5[SERCA1a]; assay type: cell-based, rabbit; set-up: containing the SERCA1a coding region from rabbit skeletal fast-twitch muscle; expressed in transfected cells; host or cells: Saccharomyces cerevisiae K667 and K667Δpdr5::HIS
# Description: (§1) Yeast transformations were performed using the method described by Gietz and Schiestl ([48]), and transformants were selected by an uracil auxotrophic marker. Transformations were confirmed by colony PCR. Both K667 and K667Δpdr5::HIS were transformed with the following plasmids: pUGpd plasmid as a vector-only control (derived from pRS316 [49]); br434 plasmid (derived from pRS316 [50]) containing the SERCA1a coding region from rabbit skeletal fast-twitch muscle (pbr434-SERCA1a); and pUGpd containing the yeast-optimized coding region of PfATP6 from Plasmodium falciparum (pUGpd-PfATP6). Site-directed mutagenesis was performed on the SERCA1a coding region to produce the mutation E255L in the protein. Mutations were also introduced into the PfATP6 coding region to produce mutations L263E, A623E, and S769N and the double mutation A623E/S769N ([13]).
# (§2) The screening assay used here was developed from the protocol used by Pulcini et al. ([13]). A single colony of the yeast strain to be screened was picked and grown in 5 mL of selective medium until stationary phase was reached. The culture was diluted 100-fold in ampicillin-supplemented yeast extract-peptone-dextrose (YPD) medium to an OD at 620 nm (OD620) equivalent to that of lag phase. YPD medium was supplemented with an appropriate concentration of calcium, depending on the transformed strain. The optimal calcium concentration for the PfATP6-expressing strain was 22 mM, and that for the SERCA1a-expressing strain was […]. The optimal calcium concentration was periodically monitored and, if necessary, adjusted using a calcium concentration range of 10 to 30 mM. A final volume of 200 μL of the yeast culture was added to each well of a 96-well plate, with 5 technical replicates included per inhibitor. All inhibitors were dissolved in dimethyl sulfoxide (DMSO) unless otherwise stated. […] The yeast growth was estimated from the absorbance at 620 nm in a Tecan plate reader. […] The data collected were analyzed using GraphPad Prism v9.0 (GraphPad software, San Diego, CA, U.S.A).
# PfATP6 = PfATP6 (Plasmodium falciparum, UniProt Q08853); assay: cell-based; assay type: cell-based; set-up: pUGpd containing the yeast-optimized coding region of PfATP6 from Plasmodium falciparum; expressed in transfected cells; host or cells: Saccharomyces cerevisiae K667 and K667Δpdr5::HIS; settings: growth inhibition, K667Δpdr5[PfATP6]
# Description: The screening assay used here was developed from the protocol used by Pulcini et al. ([13]). A single colony of the yeast strain to be screened was picked and grown in 5 mL of selective medium until stationary phase was reached. The culture was diluted 100-fold in ampicillin-supplemented yeast extract-peptone-dextrose (YPD) medium to an OD at 620 nm (OD620) equivalent to that of lag phase. YPD medium was supplemented with an appropriate concentration of calcium, depending on the transformed strain. […] The optimal calcium concentration was periodically monitored and, if necessary, adjusted using a calcium concentration range of 10 to 30 mM. A final volume of 200 μL of the yeast culture was added to each well of a 96-well plate, with 5 technical replicates included per inhibitor. All inhibitors were dissolved in dimethyl sulfoxide (DMSO) unless otherwise stated. […] The 96-well plates were incubated at 30°C for 42 h. The yeast growth was estimated from the absorbance at 620 nm in a Tecan plate reader. Growth was normalized with the no-drug control to present data as percent growth. The data collected were analyzed using GraphPad Prism v9.0 (GraphPad software, San Diego, CA, U.S.A).
# E255LSERCA1a = target: T2, E255LSERCA1a (Oryctolagus cuniculus, UniProt P04191, E255L); assay: Yeast whole-cell growth inhibition assay, K667Δpdr5[SERCA1a]255L; assay type: cell-based, rabbit
# T2 construct: expressed in transfected cells; host or cells: Saccharomyces cerevisiae K667Δpdr5
# Description: The E255L mutation was introduced into SERCA1a using the following primers: forward, 5′-[…]-3′; reverse, 5′-[…]-3′. Site-directed mutagenesis was performed using the Agilent Quikchange Lightning site-directed mutagenesis kit, following the manufacturer’s instructions. Mutants were screened by Sanger sequencing (Eurofins, UK).
# as §2, with “mM.” for “mM. A final volume of 200 μL of the yeast culture was added to each well of a 96-well plate, with 5 technical replicates included per inhibitor. All inhibitors were dissolved in dimethyl sulfoxide (DMSO) unless otherwise stated.”
# SERCA1a [2] = target: T1, SERCA1a; assay: Yeast whole-cell growth inhibition assay, K667::SERCA1a; assay type: cell-based, rabbit; set-up: containing the SERCA1a coding region from rabbit skeletal fast-twitch muscle; expressed in transfected cells; host or cells: Saccharomyces cerevisiae K667 and K667Δpdr5::HIS; settings: measured at 40 h
# Description: as §1
# The screening assay used here was developed from the protocol used by Pulcini et al. ([13]). […] The optimal calcium concentration was periodically monitored and, if necessary, adjusted using a calcium concentration range of 10 to 30 mM. […] The yeast growth was estimated from the absorbance at 620 nm in a Tecan plate reader. […] The data collected were analyzed using GraphPad Prism v9.0 (GraphPad software, San Diego, CA, U.S.A).
# T1 sequence (P04191 other isoform, or with tags, fused parts or gaps): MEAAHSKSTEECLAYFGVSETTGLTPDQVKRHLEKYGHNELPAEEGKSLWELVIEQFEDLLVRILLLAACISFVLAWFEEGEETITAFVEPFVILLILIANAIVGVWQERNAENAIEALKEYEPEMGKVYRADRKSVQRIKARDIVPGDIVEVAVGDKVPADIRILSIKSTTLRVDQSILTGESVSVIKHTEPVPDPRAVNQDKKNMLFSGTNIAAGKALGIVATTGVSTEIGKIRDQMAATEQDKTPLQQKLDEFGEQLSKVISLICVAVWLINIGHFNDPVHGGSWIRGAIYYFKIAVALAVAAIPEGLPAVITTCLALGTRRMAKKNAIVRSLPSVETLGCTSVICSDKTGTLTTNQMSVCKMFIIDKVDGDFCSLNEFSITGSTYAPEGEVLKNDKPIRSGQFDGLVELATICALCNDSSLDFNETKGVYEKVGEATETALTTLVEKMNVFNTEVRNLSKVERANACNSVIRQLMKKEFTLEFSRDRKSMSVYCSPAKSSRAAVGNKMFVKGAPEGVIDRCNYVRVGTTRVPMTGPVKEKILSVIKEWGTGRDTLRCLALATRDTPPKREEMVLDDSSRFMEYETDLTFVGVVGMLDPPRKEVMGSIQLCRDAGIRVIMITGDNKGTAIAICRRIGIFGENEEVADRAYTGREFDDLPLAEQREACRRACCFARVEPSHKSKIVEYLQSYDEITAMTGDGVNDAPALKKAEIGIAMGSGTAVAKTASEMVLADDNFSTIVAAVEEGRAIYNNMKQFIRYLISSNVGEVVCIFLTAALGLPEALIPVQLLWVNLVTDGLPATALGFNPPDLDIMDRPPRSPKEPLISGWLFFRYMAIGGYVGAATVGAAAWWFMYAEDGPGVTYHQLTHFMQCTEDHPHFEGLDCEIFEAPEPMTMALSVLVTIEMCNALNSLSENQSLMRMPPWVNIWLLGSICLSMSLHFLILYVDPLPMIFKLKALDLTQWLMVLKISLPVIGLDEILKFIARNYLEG
# T2 sequence (P04191 other isoform, or with tags, fused parts or gaps E255L): as the sequence (P04191 other isoform, or with tags, fused parts or gaps) above, with E255L counted along it
# Chain of PfATP6 (Q08853 whole entry): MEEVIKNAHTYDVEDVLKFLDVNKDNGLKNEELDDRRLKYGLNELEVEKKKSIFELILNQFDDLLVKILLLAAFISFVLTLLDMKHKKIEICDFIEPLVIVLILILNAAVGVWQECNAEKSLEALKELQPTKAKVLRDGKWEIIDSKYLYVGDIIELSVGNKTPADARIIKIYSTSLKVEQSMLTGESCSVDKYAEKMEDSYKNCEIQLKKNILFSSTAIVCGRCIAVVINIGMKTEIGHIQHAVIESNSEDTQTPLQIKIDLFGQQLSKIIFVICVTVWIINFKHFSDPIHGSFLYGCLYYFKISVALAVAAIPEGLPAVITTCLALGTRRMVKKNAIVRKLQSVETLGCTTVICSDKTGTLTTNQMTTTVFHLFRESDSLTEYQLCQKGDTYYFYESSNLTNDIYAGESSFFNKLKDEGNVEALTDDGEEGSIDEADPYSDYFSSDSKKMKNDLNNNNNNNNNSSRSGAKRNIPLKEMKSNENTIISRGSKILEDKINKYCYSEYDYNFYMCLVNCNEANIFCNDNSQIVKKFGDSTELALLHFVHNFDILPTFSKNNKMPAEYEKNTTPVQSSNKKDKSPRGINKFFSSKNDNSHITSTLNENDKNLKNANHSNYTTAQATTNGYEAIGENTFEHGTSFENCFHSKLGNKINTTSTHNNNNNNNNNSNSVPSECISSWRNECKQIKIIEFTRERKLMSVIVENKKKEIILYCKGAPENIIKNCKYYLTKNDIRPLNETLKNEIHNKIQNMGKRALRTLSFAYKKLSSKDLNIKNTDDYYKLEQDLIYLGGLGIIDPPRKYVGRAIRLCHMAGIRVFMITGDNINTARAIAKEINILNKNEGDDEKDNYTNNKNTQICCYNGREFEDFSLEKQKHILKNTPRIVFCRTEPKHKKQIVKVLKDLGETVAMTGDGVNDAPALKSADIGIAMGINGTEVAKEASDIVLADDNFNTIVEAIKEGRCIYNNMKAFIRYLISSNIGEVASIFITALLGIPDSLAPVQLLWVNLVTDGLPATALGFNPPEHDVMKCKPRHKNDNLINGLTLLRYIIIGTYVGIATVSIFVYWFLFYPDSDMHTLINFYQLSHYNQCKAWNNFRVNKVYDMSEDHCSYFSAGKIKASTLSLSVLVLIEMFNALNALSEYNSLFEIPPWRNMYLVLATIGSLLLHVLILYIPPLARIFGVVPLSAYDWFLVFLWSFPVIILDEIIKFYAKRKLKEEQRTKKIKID
Structure (SMILES),inhibition of control strain K667Δpdr5::pUGpd (K667Δpdr5::pUGpd),inhibition of control strain K667Δpdr5::SERCA1a (SERCA1a [1]; compound screen),inhibition of PfATP6 in compound screen (PfATP6),IC50 (E255LSERCA1a) [nM],"fold less sensitive, E255LSERCA1a versus wild-type (E255LSERCA1a) [fold]",IC50 (SERCA1a [2]) [nM],fold lower IC50 in K667DPDR5::SERCA1a than in K667::SERCA1a (SERCA1a [1]) [fold],"IC50 (SERCA1a [1]; K667DPDR5::SERCA1a (wild-type E255), measured at 40 h) [nM]"
O=C(Nc1cccc(C(F)(F)F)c1)c1cc(Cl)ccc1O [MMV665807],almost no inhibition,almost no inhibition,highest reproducible potency,,,,,
C/C=C(/C)C(=O)O[C@H]1C(C)=C2[C@H]([C@@H]1OC(=O)CCCCCCC)[C@@](C)(OC(C)=O)C[C@H](OC(=O)CCC)[C@@]1(O)[C@H]2OC(=O)[C@@]1(C)O [thapsigargin],,,,794 ± 247,5,335 ± 67.5,> 2,142 ± 43.9
